Assay results: US20250230193A1, “CYCLIC COMPOUND HAVING SELECTIVE KRAS INHIBITORY EFFECT ON HRAS AND NRAS” (CHUGAI SEIYAKU KABUSHIKI KAISHA, priority 2022, published 2025)
*1 amine or outer side, *2 acyl side, *3 side chain or, on linkers, in order; H or OH if unused. Where a SMILES comes first, the peptide text is derived from it. Bridges are numbered along the chain shown (N, C = ends). [ ]: non-standard residue; d: D form. The star is where a group is joined. hPhe(3-Cl-4-CF3) = N[C@@H](CCc1ccc(C(F)(F)F)c(Cl)c1)C(=O)O; X28 = C#CCN([C@@H](Cc1ccc(C(F)(F)F)cc1)C(=O)[*:2])[*:1]; NMeGly(cPent) = CN[C@H](C(=O)O)C1CCCC1; NMeD = CN[C@@H](CC(=O)O)C(=O)O; NMeL = CN[C@@H](CC(C)C)C(=O)O; Morpholide = C1CN(*)CCO1; NMeA = CN[C@@H](C)C(=O)O; Ac5c = NC1(C(=O)O)CCCC1; Aze = O=C(O)[C@@H]1CCN1; Sar = CNCC(=O)O

What was measured:
[1] = target: GDP-bound NRAS wild-type protein (Homo sapiens, UniProt P01111); assay: Binding to NRAS by surface plasmon resonance (SPR), Single Cycle Kinetics
Chain of GDP-bound NRAS wild-type protein (P01111 whole entry): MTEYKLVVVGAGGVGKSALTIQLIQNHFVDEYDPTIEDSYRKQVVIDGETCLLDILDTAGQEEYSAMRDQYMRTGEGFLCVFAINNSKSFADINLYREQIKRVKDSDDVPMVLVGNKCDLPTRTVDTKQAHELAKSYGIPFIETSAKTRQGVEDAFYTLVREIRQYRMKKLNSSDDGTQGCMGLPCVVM

[2] = target: GDP-bound HRAS wild-type protein (Homo sapiens, UniProt P01112); assay: Binding to HRAS by surface plasmon resonance (SPR), Single Cycle Kinetics
Chain of GDP-bound HRAS wild-type protein (P01112 whole entry): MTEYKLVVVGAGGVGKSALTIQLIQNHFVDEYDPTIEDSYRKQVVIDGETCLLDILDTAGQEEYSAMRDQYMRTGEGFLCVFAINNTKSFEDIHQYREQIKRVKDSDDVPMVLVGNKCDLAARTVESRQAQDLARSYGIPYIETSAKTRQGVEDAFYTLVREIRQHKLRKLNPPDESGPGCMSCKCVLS

[3] = SPR, GDP-bound NRAS wild-type vs GDP-bound KRAS wild-type
[4] = SPR, GDP-bound HRAS wild-type vs GDP-bound KRAS wild-type
[5] = KD ratio, GDP-bound NRAS wild-type vs GDP-bound KRAS wild-type, SPR
[6] = KD ratio, GDP-bound HRAS wild-type vs GDP-bound KRAS wild-type, SPR

**Q.** `CCO[C@@H]1C[C@H]2C(=O)NC3(CCC3)C(=O)N(C)[C@@H](C3CCCC3)C(=O)N(C)[C@H](C(=O)N3CCOCC3)CC(=O)N(C)[C@@H](C)C(=O)N[C@@H]([C@@H](C)CC)C(=O)N(C)CC(=O)N(C)[C@H]3CCCCN(C3=O)[C@@H](Cc3ccc(C(F)(F)F)cc3)C(=O)N(C)CC(=O)N[C@@H](CCc3cc(F)c(C(F)(F)F)c(F)c3)C(=O)N2C1` [PP0585] was tested. Which “NRAS/KRAS (ratio of KD value with respect to GDP-bound NRAS wild-type protein to KD value with respect to KRAS)” value ([1]; KD ratio NRAS/KRAS, SPR) did it give?
**A.** Its value is “B (a compound having 3 or more and less than 10 is denoted as B)”.

**Q.** And the “HRAS/KRAS (ratio of KD value with respect to GDP-bound HRAS wild-type protein to KD value with respect to KRAS)” value ([2]; KD ratio HRAS/KRAS, SPR)?
**A.** Its value is “B (a compound having 3 or more and less than 10 is denoted as B)”.

**Q.** How did the “NRAS/KRAS (ratio of KD value with respect to GDP-bound NRAS wild-type protein to KD value with respect to KRAS)” value ([1]; KD ratio NRAS/KRAS, class symbols) turn out when `CC[C@H](C)[C@@H]1NC(=O)[C@H](COC)N(C)C(=O)C[C@@H](C(=O)N2CCCCC2)N(C)C(=O)[C@H](C2CCCC2)N(C)C(=O)C2(CC(C)(C)C2)NC(=O)[C@@H]2C[C@@H](OC(C)C)CN2C(=O)[C@H](CCc2cc(F)c(C(F)(F)F)c(F)c2)NC(=O)CN(C)C(=O)[C@H](Cc2ccc(C(F)(F)F)cc2)N2CC/C=C\C[C@@H](C2=O)N(C)C(=O)CN(C2CC2)C1=O` [PP2667] was run?
**A.** Its value is “A (a compound having 10 or more and less than 20 is denoted as A)”.

**Q.** And the “HRAS/KRAS (ratio of KD value with respect to GDP-bound HRAS wild-type protein to KD value with respect to KRAS)” value ([2]; KD ratio HRAS/KRAS, class symbols)?
**A.** Its value is “A (a compound having 10 or more and less than 20 is denoted as A)”.

**Q.** `CCO[C@@H]1C[C@H]2C(=O)NC3(CC(C)(C)C3)C(=O)N(C)[C@@H](C(CC)CC)C(=O)N(C)[C@H](C(=O)N3CCCC3)CC(=O)N(C)[C@@H](C)C(=O)N[C@@H]([C@@H](C)CC)C(=O)N(C)CC(=O)N(C)[C@H]3C/C=C\CCN(C3=O)[C@@H](Cc3ccc(C(F)(F)F)cc3)C(=O)N(C)CC(=O)N[C@@H](CCc3ccc(Cl)c(Cl)c3)C(=O)N2C1` [PP2178] was tested. Which “NRAS/KRAS (ratio of KD value with respect to NRAS to KD value with respect to KRAS)” value [1, 3] did it give?
**A.** The value was “AA (a compound having 20 or more is denoted as AA)”.

**Q.** And the “HRAS/KRAS (ratio of KD value with respect to HRAS to KD value with respect to KRAS)” value [2, 4]?
**A.** The value was “A (a compound having 10 or more and less than 20 is denoted as A)”.

**Q.** For `CC[C@H](C)[C@@H]1NC(=O)[C@H](CC(C)C)N(C)C(=O)C[C@@H](C(=O)N2CCOCC2)N(C)C(=O)[C@H](C2CCCC2)N(C)C(=O)C2(CCC2)NC(=O)[C@@H]2C[C@@H](OCC3CC3)CN2C(=O)[C@H](CCc2cc(F)c(C(F)(F)F)c(F)c2)NC(=O)CN(C)C(=O)[C@H](Cc2ccc(C(F)(F)F)cc2)N2CCCC[C@@H](C2=O)N(C)C(=O)CN(C)C1=O` [PP1000], which “NRAS/KRAS (ratio of KD value with respect to NRAS to KD value with respect to KRAS)” value [1, 5] is on record?
**A.** Its value is “B (a compound having 3 or more and less than 10 is denoted as B)”.

**Q.** And the “HRAS/KRAS (ratio of KD value with respect to HRAS to KD value with respect to KRAS)” value [2, 6]?
**A.** Its value is “B (a compound having 3 or more and less than 10 is denoted as B)”.

**Q.** Which results are given for `CCOC[C@H]1C(=O)N[C@@H]([C@@H](C)CC)C(=O)N(C)CC(=O)N(C)[C@H]2C/C=C\CCN(C2=O)[C@@H](CC2CCCCC2)C(=O)N(C)CC(=O)N[C@@H](CCc2ccc(C(F)(F)F)c(OC)c2)C(=O)N2C[C@@H](C)C[C@H]2C(=O)N(C)C2(CCC2)C(=O)N(C)[C@@H](C2CCCC2)C(=O)N(C)[C@H](C(=O)N(C)C)CC(=O)N1C` [PP2371]?
**A.** NRAS/KRAS (ratio of KD value with respect to NRAS to KD value with respect to KRAS) [1, 3]: A (a compound having 10 or more and less than 20 is denoted as A); HRAS/KRAS (ratio of KD value with respect to HRAS to KD value with respect to KRAS) [2, 4]: B (a compound having 3 or more and less than 10 is denoted as B)

**Q.** With `C#CCN1C(=O)[C@@H]2CCN2C(=O)[C@H](C)N(C)C(=O)[C@H]([C@@H](C)CC)NC(=O)[C@H](CC(C)C)N(C)C(=O)C[C@@H](C(=O)N2CCOCC2)N(C)C(=O)[C@H](C2CCCC2)N(C)C(=O)C2(CCCC2)NC(=O)[C@@H]2CCCN2C(=O)[C@H](CCc2ccc(C(F)(F)F)c(Cl)c2)NC(=O)CN(C)C(=O)[C@@H]1Cc1ccc(C(F)(F)F)cc1` [PP0116] ([NMeL]I[NMeA][Aze][X28][Sar][hPhe(3-Cl-4-CF3)]P[Ac5c][NMeGly(cPent)][NMeD]-Morpholide; lactam N-11) as the compound, how does the “NRAS/KRAS (ratio of KD for GDP-bound NRAS wild-type to KD for KRAS)” value ([1]; KD ratio NRAS/KRAS, SPR) read?
**A.** The value was “C (A compound having a KD ratio of 0.1 or more and less than 3 is denoted as C)”.

**Q.** And the “HRAS/KRAS (ratio of KD for GDP-bound HRAS wild-type to KD for KRAS)” value ([2]; KD ratio HRAS/KRAS, SPR)?
**A.** The value was “C (A compound having a KD ratio of 0.1 or more and less than 3 is denoted as C)”.

**Q.** Which “NRAS/KRAS (ratio of KD value for NRAS to KD value for KRAS)” value [1, 5] does the source give for `CCC[C@H]1C(=O)N[C@@H]([C@@H](C)CC)C(=O)N(C)CC(=O)N(C)[C@H]2C/C=C\CCN(C2=O)[C@@H](Cc2ccc(C(F)(F)F)cc2)C(=O)N(C)CC(=O)N[C@@H](CCc2cc(F)c(C(F)(F)F)c(F)c2)C(=O)N(C)[C@@H](C)C(=O)NC2(CC(C)(C)C2)C(=O)N(C)[C@@H](C2CCCC2)C(=O)N(C)[C@H](C(=O)N(C)C)CC(=O)N1C` [PP1934] here?
**A.** Its value is “A (a compound having 10 or more and less than 20 is denoted as A)”.

**Q.** And the “HRAS/KRAS (ratio of KD value for HRAS to KD value for KRAS)” value [2, 6]?
**A.** The value was “A (a compound having 10 or more and less than 20 is denoted as A)”.
